Data on 17 molecules can be found in patent US10526316B2, “Quinoxaline and pyridopyrazine derivatives as PI3Kβ inhibitors” (Janssen Pharmaceutica NV, priority 2015, dated 2020).

Read-outs that look alike come from different tables or passages of the source.

For assay [1], the target named is T1, PI3Kδ (Homo sapiens, UniProt O00329).
T1 construct: purchased DiscoveRx Corporation, San Diego (contract service, KINOMEscan)
T1 sequence (O00329 1-1044): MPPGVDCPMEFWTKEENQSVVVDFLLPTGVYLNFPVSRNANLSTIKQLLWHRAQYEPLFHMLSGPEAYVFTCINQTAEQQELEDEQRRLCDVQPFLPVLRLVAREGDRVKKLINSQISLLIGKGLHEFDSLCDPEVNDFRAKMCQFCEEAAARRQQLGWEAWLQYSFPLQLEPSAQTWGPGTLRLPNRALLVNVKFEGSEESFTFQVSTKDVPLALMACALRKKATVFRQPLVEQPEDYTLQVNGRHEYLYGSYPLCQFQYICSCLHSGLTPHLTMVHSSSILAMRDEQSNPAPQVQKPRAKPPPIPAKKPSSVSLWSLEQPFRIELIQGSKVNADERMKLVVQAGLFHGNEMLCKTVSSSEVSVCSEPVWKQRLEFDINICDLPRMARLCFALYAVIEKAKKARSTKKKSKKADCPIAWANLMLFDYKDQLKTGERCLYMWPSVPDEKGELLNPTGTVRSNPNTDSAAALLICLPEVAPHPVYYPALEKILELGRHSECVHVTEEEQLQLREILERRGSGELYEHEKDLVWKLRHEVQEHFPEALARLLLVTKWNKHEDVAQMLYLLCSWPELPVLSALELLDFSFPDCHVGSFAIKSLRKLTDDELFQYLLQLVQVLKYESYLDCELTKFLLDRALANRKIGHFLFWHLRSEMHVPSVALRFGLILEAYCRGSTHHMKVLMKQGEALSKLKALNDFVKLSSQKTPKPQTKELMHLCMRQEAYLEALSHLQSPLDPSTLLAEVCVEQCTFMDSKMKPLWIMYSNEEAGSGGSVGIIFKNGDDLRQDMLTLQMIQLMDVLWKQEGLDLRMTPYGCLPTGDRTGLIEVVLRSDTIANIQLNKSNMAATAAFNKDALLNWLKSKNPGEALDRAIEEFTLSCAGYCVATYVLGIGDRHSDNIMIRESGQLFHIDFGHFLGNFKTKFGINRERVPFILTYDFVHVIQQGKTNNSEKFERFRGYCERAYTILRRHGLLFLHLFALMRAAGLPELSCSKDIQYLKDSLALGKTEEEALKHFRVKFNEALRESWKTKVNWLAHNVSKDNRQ
Description: Enzyme binding assay (KINOMEscan, DiscoveRx). The following applies: PIK3Cδ_h. In outline: (§1)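 Binding affinities were measured on the KINOMEscan platform.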

The target of assay [2] is T2, PI3Kβ (Homo sapiens, UniProt P42338).
T2 construct: purchased DiscoveRx Corporation, San Diego (contract service, KINOMEscan)
Kind of assay: Enzyme binding assay (KINOMEscan, DiscoveRx). The note with it: PIK3Cβ_h, read-out: Kd PIK3Cβ_h. The method, boiled down: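 Kinase binding affinities were measured with KINOMEscan technology. Results are given as Kd, the inhibitor binding constant, in nM.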

Assay [3] concerns Akt phosphorylated at Ser473 in PC-3 cells. Description: Cellular assay: phosphorylation of Akt at Ser473 in PC-3 cells (MSD ELISA). In kind it is cell-based. The following applies: PC-3 cells, 60 min compound incubation, MSD ELISA, read-out: IC50 pAkt_S473. In outline:
(§2)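 Electrochemiluminescent sandwich ELISA read-out: phospho-specific capture (Ser473 or Thr308), Sulfo-tag anti-total Akt detection, signal proportional to phospho-Akt. Cells treated 60 min at 37° C with compound, DMSO 0.3%. IC50 fitted from five concentrations.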
Background: An ELISA detects its analyte on a solid surface through an enzyme-linked reagent.

For assay [4], the system named is Akt phosphorylated at Thr308 in PC-3 cells. Kind of assay: Cellular assay: phosphorylation of Akt at Thr308 in PC-3 cells (MSD ELISA). The note with it: PC-3 cells, 60 min compound incubation, MSD ELISA, read-out: IC50 pAkt_Thr308. Format: cell-based. In outline:
as §2

Assay [5] has as its target T3, kinase enzymes (Homo sapiens, UniProt P48736).
T3 construct: purchased DiscoveRx Corporation, San Diego (contract service, KINOMEscan)
Kind of assay: Enzyme binding assay (KINOMEscan, DiscoveRx), further kinases of Table A. The note with it: PIK3Cγ_h. The method, boiled down:
as §1

Assay [6] concerns the target T4, kinase enzymes (Homo sapiens, UniProt P42345).
T4 construct: purchased DiscoveRx Corporation, San Diego (contract service, KINOMEscan)
The assay is described as above. The following applies: MTOR_h. The method, boiled down: as §1

Assay [7] deals with T5, kinase enzymes (Homo sapiens, UniProt P42336).
T5 construct: purchased DiscoveRx Corporation, San Diego (contract service, KINOMEscan)
The assay is described as above. The note with it: PIK3Cα_h. The method, boiled down:
as §1

T5 sequence (P42336 whole entry): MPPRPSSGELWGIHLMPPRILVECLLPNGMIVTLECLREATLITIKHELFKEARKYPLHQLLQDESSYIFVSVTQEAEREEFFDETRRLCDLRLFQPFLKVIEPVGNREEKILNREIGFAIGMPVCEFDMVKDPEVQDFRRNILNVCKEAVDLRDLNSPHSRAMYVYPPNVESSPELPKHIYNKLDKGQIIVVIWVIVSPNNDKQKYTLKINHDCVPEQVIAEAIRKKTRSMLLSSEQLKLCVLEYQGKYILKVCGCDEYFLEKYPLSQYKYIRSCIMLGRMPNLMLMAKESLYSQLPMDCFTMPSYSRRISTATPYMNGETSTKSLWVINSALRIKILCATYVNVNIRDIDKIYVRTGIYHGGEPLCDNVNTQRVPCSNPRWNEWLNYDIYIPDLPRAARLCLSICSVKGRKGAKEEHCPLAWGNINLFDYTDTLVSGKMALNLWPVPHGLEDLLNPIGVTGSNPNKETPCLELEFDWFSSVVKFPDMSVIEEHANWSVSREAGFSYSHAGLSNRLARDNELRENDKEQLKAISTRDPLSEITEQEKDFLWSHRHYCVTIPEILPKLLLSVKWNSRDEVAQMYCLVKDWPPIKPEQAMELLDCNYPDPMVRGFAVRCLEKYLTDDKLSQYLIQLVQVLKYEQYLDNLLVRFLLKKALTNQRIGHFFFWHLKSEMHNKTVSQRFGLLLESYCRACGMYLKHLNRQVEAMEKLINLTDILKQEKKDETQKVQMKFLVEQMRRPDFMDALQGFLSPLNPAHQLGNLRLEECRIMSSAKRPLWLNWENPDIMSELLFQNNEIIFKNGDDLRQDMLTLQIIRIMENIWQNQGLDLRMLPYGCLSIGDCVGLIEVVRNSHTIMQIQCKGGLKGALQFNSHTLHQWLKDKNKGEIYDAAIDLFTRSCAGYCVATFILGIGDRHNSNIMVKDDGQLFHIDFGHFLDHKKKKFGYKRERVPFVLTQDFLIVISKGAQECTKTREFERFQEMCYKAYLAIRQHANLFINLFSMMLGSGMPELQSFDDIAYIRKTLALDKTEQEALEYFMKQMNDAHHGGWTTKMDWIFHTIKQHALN
T2 sequence (P42338 whole entry): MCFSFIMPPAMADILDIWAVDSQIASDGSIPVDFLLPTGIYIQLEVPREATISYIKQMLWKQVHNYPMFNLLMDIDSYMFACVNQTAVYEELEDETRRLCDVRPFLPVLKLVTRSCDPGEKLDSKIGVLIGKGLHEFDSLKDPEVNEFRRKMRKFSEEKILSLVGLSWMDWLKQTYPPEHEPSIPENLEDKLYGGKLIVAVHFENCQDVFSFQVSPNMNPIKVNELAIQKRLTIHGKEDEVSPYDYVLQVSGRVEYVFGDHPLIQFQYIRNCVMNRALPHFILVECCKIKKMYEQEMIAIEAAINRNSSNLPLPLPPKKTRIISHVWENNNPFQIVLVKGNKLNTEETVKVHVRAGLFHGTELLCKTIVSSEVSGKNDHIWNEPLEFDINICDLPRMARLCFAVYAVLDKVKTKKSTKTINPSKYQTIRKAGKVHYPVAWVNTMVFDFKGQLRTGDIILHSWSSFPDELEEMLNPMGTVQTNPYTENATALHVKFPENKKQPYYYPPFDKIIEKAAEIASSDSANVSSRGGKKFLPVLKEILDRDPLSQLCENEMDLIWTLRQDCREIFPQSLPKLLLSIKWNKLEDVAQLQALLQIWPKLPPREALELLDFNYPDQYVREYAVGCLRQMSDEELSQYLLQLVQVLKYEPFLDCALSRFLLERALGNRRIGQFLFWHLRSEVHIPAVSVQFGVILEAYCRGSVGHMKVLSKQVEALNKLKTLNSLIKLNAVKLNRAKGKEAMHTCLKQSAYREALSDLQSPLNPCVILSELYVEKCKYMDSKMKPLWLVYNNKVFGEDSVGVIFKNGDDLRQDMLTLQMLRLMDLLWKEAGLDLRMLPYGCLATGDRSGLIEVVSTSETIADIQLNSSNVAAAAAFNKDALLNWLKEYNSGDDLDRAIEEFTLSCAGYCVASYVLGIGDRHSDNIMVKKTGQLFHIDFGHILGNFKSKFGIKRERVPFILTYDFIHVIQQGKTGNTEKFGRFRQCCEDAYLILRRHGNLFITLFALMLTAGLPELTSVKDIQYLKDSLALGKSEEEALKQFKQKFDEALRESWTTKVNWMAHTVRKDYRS
T3 sequence (P48736 whole entry): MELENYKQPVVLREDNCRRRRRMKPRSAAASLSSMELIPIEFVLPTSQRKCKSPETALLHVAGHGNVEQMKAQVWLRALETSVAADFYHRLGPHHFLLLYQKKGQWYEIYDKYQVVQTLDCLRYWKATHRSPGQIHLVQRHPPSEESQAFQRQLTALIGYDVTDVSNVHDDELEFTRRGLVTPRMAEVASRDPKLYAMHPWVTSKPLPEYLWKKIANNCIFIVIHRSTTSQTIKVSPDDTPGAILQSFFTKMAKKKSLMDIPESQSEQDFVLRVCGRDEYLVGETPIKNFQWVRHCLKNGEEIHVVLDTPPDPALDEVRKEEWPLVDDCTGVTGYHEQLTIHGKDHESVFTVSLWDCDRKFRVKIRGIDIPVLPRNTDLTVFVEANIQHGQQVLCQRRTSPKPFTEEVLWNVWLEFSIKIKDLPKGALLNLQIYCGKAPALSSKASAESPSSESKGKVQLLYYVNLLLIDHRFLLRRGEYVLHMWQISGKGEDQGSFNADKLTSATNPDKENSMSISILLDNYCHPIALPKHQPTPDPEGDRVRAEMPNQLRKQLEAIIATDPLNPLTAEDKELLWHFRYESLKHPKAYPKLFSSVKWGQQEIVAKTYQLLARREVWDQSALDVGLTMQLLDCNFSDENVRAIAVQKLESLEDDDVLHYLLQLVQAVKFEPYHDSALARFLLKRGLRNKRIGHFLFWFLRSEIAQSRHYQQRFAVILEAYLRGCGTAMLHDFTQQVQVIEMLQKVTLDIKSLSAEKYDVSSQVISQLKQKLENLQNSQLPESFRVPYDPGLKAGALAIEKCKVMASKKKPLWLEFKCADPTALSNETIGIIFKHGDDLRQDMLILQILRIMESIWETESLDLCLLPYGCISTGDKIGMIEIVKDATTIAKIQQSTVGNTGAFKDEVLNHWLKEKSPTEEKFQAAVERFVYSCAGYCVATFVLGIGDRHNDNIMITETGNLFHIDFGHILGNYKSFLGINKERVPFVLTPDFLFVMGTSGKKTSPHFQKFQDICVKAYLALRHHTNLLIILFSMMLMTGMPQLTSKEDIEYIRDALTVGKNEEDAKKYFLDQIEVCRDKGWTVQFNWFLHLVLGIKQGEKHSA

In general, Kd refers to a measure of binding affinity in units of concentration. One may read the IC50 as the midpoint of a concentration-inhibition curve. With `CC(Nc1cc(F)cc(F)c1)c1cc(CN2CCS(=O)(=O)CC2)cc2ncc(N3CCOCC3)nc12` (single isomer, unassigned) [Compound 157], the Kd was 20000 nM in assay [1]; 102 nM in assay [2]; more than 30200 nM in assay [5]; more than 30200 nM in assay [6]; 13200 nM in assay [7]. Further, the figures for the IC50 in assay [3] and in assay [4] were more than 513 nM and 417 nM, respectively.

Regarding `CC(Nc1cc(F)cc(F)c1)c1cc(C(=O)N(C)C)cc2ncc(C3=CCOCC3)nc12` (single isomer, unassigned) [Compound 158], the Kd in assay [1] is 120 nM; in assay [2], 0.4 nM; in assay [5], 2290 nM; in assay [6] it was more than 30200 nM; in assay [7], 339 nM. Further, the IC50 in assay [3] came to 23 nM; in assay [4] it was 20 nM.

In the case of `CC(Nc1cc(F)cc(F)c1)c1cc(C(=O)N(C)C)cc2ncc(C3=CCOCC3)nc12` (single isomer, unassigned) [Compound 159], the Kd in assay [1] is 23400 nM; in assay [2] it was 110 nM; in assay [5], more than 30200 nM; in assay [6] it was more than 30200 nM; in assay [7] it was more than 30200 nM. Also, the IC50 in assay [3] and in assay [4] was more than 513 nM in each case.

On to `CC(Nc1cc(F)cc(F)c1)c1cc(CNCC(F)(F)F)cc2ncc(N3CCOCC3)nc12` (single isomer, unassigned) [Compound 163], for which the Kd in assay [1] was 16200 nM; in assay [2], 832 nM; in assay [5], more than 30200 nM; in assay [6] it was more than 30200 nM; in assay [7], more than 30200 nM. For the same molecule, the IC50 in assay [3] and in assay [4] was more than 513 nM throughout.

In the case of `CNCCNC(=O)c1cc(C(C)Oc2cc(F)cc(F)c2)c2nc(N3CCOCC3)cnc2c1` (single isomer, unassigned) [Compound 166], the Kd stood at 4070 nM in assay [1]; 19 nM in assay [2]; 14800 nM in assay [5]; 21900 nM in assay [6]; 16600 nM in assay [7]. In addition, the IC50 in assay [3] and in assay [4] was more than 513 nM throughout.

Consider `CNCCOCCN(C)C(=O)c1cc(C(C)Nc2cc(F)cc(F)c2)c2nc(N3CCOCC3)cnc2c1` (single isomer, unassigned) [Compound 175], for which the Kd in assay [1] is 112 nM; in assay [2] it was 0.4 nM; in assay [5], 2570 nM; in assay [6], more than 30200 nM; in assay [7], 1700 nM. Moreover, the IC50 in assay [3] was found to be 9 nM; in assay [4] it was 11 nM.

With `CC(Nc1cc(F)cc(F)c1)c1cc(COCCO)cc2ncc(N3CCOCC3)nc12` (single isomer, unassigned) [Compound 177], the Kd in assay [1] was 170 nM; in assay [2] it was 2 nM; in assay [5], 6920 nM; in assay [6], 24000 nM; in assay [7], 1380 nM. The IC50 in assay [3] stood at 60 nM; in assay [4] it was 42 nM.

As to `CC(Nc1cc(F)cc(F)c1)c1cc(COCCO)cc2ncc(N3CCOCC3)nc12` (single isomer, unassigned) [Compound 178], the Kd was 16600 nM in assay [1]; 1100 nM in assay [2]; more than 30200 nM in assay [5]; more than 30200 nM in assay [6]; more than 30200 nM in assay [7]. The IC50 in assay [3] and in assay [4] was more than 513 nM throughout.

With `CC(Nc1cc(F)cc(F)c1)c1cc(C2=NC(C)(C)CO2)cc2ncc(N3CCOCC3)nc12` (single isomer, unassigned) [Compound 187], the Kd in assay [1] was more than 30200 nM; in assay [2], 1050 nM; in assay [5], more than 30200 nM; in assay [6], more than 30200 nM; in assay [7], more than 30200 nM. Also, the IC50 in assay [3] (Homo sapiens, PC-3, 1 h) was more than 513 nM; in assay [4] (Homo sapiens, PC-3, 1 h), more than 513 nM.

For `CC(Nc1cc(F)cc(F)c1)c1cc(C(=O)NCCO)cc2ncc(N3CCOCC3)nc12` (single isomer, unassigned) [Compound 189], the Kd was 28200 nM in assay [1]; 2510 nM in assay [2]; 4470 nM in assay [5]; more than 30200 nM in assay [6]; more than 30200 nM in assay [7]. The IC50 in assay [3] and in assay [4] was more than 513 nM throughout.

`CC(Nc1cc(F)cc(F)c1)c1cc(CN2CCO[C@H](CO)C2)cc2ncc(N3CCOCC3)nc12` (single isomer, unassigned) [Compound 194]: the Kd in assay [1] is more than 30200 nM; in assay [2], 1820 nM; in assay [5], more than 30200 nM; in assay [6] it was more than 30200 nM; in assay [7], more than 30200 nM. Further, the IC50 in assay [3] (Homo sapiens, PC-3, 1 h) was more than 513 nM; in assay [4] (Homo sapiens, PC-3, 1 h), more than 513 nM.

In the case of `CC(Nc1cc(F)cc(F)c1)c1cc(CN2CCOCC23COC3)cc2ncc(N3CCOCC3)nc12` (single isomer, unassigned) [Compound 195], the Kd in assay [1] is 479 nM; in assay [2], 2 nM; in assay [5] it was 12900 nM; in assay [6], more than 30200 nM; in assay [7], 1950 nM. Further, the IC50 in assay [3] is approximately 102 nM; in assay [4] it was 47 nM.

In the case of `CC(Nc1cc(F)cc(F)c1)c1cc(CN2CCO[C@H](CO)C2)cc2ncc(N3CCOCC3)nc12` (single isomer, unassigned) [Compound 196], the Kd in assay [1] was 813 nM; in assay [2], 5 nM; in assay [5] it was 15800 nM; in assay [6], more than 30200 nM; in assay [7], 2820 nM. The IC50 is 182 nM in assay [3] (Homo sapiens, PC-3, 1 h) and 91 nM in assay [4] (Homo sapiens, PC-3, 1 h).

With `CC(Nc1cc(F)cc(F)c1)c1cc(C(=O)NC[C@@H](C)O)cc2ncc(N3CCOCC3)nc12` (single isomer, unassigned) [Compound 202], the Kd in assay [1] is more than 30200 nM; in assay [2], 3950 nM; in assay [5], 3320 nM; in assay [6], 6030 nM; in assay [7], more than 30200 nM. Further, the IC50 in assay [3] and in assay [4] was more than 513 nM each time.

Consider `COC1CN(Cc2cc(C(C)Nc3cc(F)cc(F)c3)c3nc(N4CCOCC4)cnc3c2)CC1OC` (single isomer, unassigned) [Compound 205], for which the Kd was 17400 nM in assay [1]; 204 nM in assay [2]; more than 30200 nM in assay [5]; more than 30200 nM in assay [6]; more than 30200 nM in assay [7]. The IC50 is more than 513 nM in assay [3] (Homo sapiens, PC-3, 1 h) and more than 513 nM in assay [4].

As for `COC1CN(Cc2cc(C(C)Nc3cc(F)cc(F)c3)c3nc(N4CCOCC4)cnc3c2)CC1OC` (single isomer, unassigned) [Compound 207], the Kd in assay [1] is 891 nM; in assay [2] it was 6 nM; in assay [5] it was 16200 nM; in assay [6], 7940 nM; in assay [7], 5250 nM. Besides, the values for the IC50 in assay [3] and in assay [4] were 372 nM and 105 nM, respectively.

As for `CC(Nc1cc(F)cc(F)c1)c1cc(CN2C[C@@H](C)O[C@@H](C)C2)cc2ncc(N3CCOCC3)nc12` (single isomer, unassigned) [Compound 208], the Kd in assay [1] is 1410 nM; in assay [2], 8 nM; in assay [5], more than 30200 nM; in assay [6], more than 30200 nM; in assay [7] it was 3470 nM. In addition, the values for the IC50 in assay [3] and in assay [4] were 186 nM and 83 nM, respectively.
